In patent publication US11152578B2, “Sulfonium salts of DNTT and related compounds as soluble photocleavable precursors for organic semiconductors for use in organic field-effect transistors” (Clap Co., Ltd., priority 2017, dated 2021):
Like-named read-outs stand apart in the source and are kept apart here.

Columns and labels:
[1] = Solubility in various solvents at 25° C.; assay type: physicochemical; conditions: organic solvent or mixture
Description: The solubility of the compound 1Aa at 25° C. was compared to the solubility of compound 2Aa in various solvents.

[2] = background statement, no solvent given; cited from earlier work
[3] = CH3CN, read-out: solubility in CH3CN
[4] = CHCl3, read-out: solubility in CHCl3
[5] = DMF, read-out: solubility in DMF

solubility [1, 3] [µg/mL]	solubility [1, 4] [µg/mL]	solubility [1, 5] [µg/mL]	SMILES	solubility (in words) [2]
5000	5000	8000	CCC(C)(C)c1ccc(-[s+]2c3cc4ccccc4cc3c3sc4cc5ccccc5cc4c32)cc1.F[B-](F)(F)F (stereo not shown) [Compound 1Aa]	
< 1000	< 1000	< 1000	c1ccc2cc3c(cc2c1)sc1c2cc4ccccc4cc2sc31 [Compound 2Aa, dinaphtho[2,3-b:2′,3′-f]thieno[3,2-b]thiophene]	low solubility
